Test results taken from patent US20250049970A1, “DLL3 TARGETING PEPTIDES AND CONSTRUCTS THEREOF” (MARIANA ONCOLOGY INC., priority 2023, published 2025).
Where a SMILES comes first, the peptide text is derived from it. Bridges are numbered along the chain shown (N, C = ends). [ ]: non-standard residue; d: D form.

Molecular target: T1, DLL3 (Homo sapiens, UniProt Q9NYJ7)
T1 sequence (Q9NYJ7 27-618): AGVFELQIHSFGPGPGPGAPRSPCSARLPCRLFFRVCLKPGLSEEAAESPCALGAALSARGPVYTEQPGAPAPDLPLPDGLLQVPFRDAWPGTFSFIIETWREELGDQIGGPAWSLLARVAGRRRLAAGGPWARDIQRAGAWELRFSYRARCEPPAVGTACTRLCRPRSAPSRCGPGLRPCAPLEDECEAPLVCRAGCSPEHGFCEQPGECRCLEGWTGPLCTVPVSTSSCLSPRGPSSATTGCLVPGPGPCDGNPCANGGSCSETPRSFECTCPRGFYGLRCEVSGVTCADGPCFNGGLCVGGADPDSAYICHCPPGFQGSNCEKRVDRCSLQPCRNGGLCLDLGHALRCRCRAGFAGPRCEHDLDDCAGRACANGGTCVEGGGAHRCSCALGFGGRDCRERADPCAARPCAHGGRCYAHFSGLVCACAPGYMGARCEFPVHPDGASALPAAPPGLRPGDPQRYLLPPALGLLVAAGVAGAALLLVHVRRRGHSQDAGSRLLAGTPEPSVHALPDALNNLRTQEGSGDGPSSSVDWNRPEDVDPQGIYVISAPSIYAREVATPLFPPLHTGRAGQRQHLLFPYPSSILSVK
Experiment: SPR KD, biotinylated human DLL3 on streptavidin chip (Table 8)
Design: biotin (biotinylated)
Conditions: biotinylated human DLL3 on streptavidin sensor chip, 25° C., 1:1 binding model; read-out: SPR KD
Source text: Biotinylated target ligand human DLL3 was immobilized on a streptavidin sensor chip. A reference surface was set up for nonspecific binding and refractive index changes. […] Sensorgram curves were fitted with 1:1 binding model, and affinity and kinetic parameters were obtained using Biacore Insight evaluation 4.0. software.

Kd	SMILES
1 to 10 nM	CC(=O)N[C@@H](Cc1c[nH]c2ccccc12)C(=O)N[C@H](C(=O)N[C@H](C(=O)N[C@H]1CSSC[C@@H](C(=O)N[C@@H](Cc2c[nH]c3ccccc23)C(=O)N2CCC[C@H]2C(N)=O)NC(=O)[C@H](CC(=O)O)NC(=O)[C@H](CCCCNC(=O)CN2CCN(CC(=O)O)CCN(CC(=O)O)CCN(CC(=O)O)CC2)NC(=O)[C@H](Cc2ccc3ccccc3c2)NC(=O)[C@H](CC(N)=O)NC(=O)[C@H](CN2CCOCC2)NC1=O)C(C)(C)C)[C@@H](C)O (single isomer, unassigned) [compound 304, Ac-W-T-(Tbg)-C(3)-[3-(1-morpholinyl)-Ala]-N-(2Nal)-Lys(DOTA)-D-C(3)-W-P-CONH2]
< 1 nM	CC(=O)N[C@@H](Cc1c[nH]c2ccccc12)C(=O)N[C@H](C(=O)N[C@@H](CC(C)(C)C)C(=O)N[C@H]1CSSC[C@@H](C(=O)N[C@@H](Cc2c[nH]c3ccccc23)C(=O)N2CCC[C@H]2C(N)=O)NC(=O)[C@H](CC(=O)O)NC(=O)[C@H](CCCCNC(=O)CN2CCN(CC(=O)O)CCN(CC(=O)O)CCN(CC(=O)O)CC2)NC(=O)[C@H](Cc2ccc3ccccc3c2)NC(=O)[C@H](CC(N)=O)NC(=O)C(CN2CCOCC2)NC1=O)[C@@H](C)O (single isomer, unassigned) [compound 305, Ac-W-T-(t-Bu-Ala)-C(3)-[3-(1-morpholinyl)-Ala]-N-(2Nal)-Lys(DOTA)-D-C(3)-W-P-CONH2]
< 1 nM	CCC(C)(C)[C@H](NC(=O)[C@@H](NC(=O)[C@H](Cc1c[nH]c2ccccc12)NC(C)=O)[C@@H](C)O)C(=O)N[C@H]1CSSC[C@@H](C(=O)N[C@@H](Cc2c[nH]c3ccccc23)C(=O)N2CCC[C@H]2C(N)=O)NC(=O)[C@H](CC(=O)O)NC(=O)[C@H](CCCCNC(=O)CN2CCN(CC(=O)O)CCN(CC(=O)O)CCN(CC(=O)O)CC2)NC(=O)[C@H](Cc2ccc3ccccc3c2)NC(=O)[C@H](CC(N)=O)NC(=O)C(CN2CCOCC2)NC1=O (single isomer, unassigned) [compound 306, Ac-W-T-(α-tert-amylGly)-C(3)-[3-(1-morpholinyl)-Ala]-N-(2Nal)-Lys(DOTA)-D-C(3)-W-P-CONH2]
1 to 10 nM	CC[C@@H](C)[C@H](NC(=O)[C@@H](NC(=O)[C@H](Cc1c[nH]c2ccccc12)NC(C)=O)[C@@H](C)O)C(=O)N[C@H]1CSSC[C@@H](C(=O)N[C@@H](Cc2c[nH]c3ccccc23)C(=O)N2CCC[C@H]2C(N)=O)NC(=O)[C@H](CC(=O)O)NC(=O)[C@H](CCCCNC(=O)CN2CCN(CC(=O)O)CCN(CC(=O)O)CCN(CC(=O)O)CC2)NC(=O)[C@H](Cc2ccc3ccccc3c2)NC(=O)[C@H](CC(N)=O)NC(=O)C(CN2CCOCC2)NC1=O (single isomer, unassigned) [compound 307, Ac-W-T-(Allo-Ile)-C(3)-[3-(1-morpholinyl)-Ala]-N-(2Nal)-Lys(DOTA)-D-C(3)-W-P-CONH2]
< 1 nM	CC(=O)N[C@@H](Cc1c[nH]c2ccccc12)C(=O)N[C@H](C(=O)N[C@@H](CC(C)(C)C)C(=O)N[C@H]1CSSC[C@@H](C(=O)N[C@@H](Cc2c[nH]c3ccccc23)C(=O)N2CCC[C@H]2C(N)=O)NC(=O)[C@H](CC(=O)O)NC(=O)[C@H](CCCCNC(=O)CN2CCN(CC(=O)O)CCN(CC(=O)O)CCN(CC(=O)O)CC2)NC(=O)[C@H](Cc2ccc3ccccc3c2)NC(=O)[C@H](CC(N)=O)NC(=O)C(CN2CCOCC2)NC1=O)[C@@H](C)O (single isomer, unassigned) [compound 310, Ac-W-T-(t-Bu-Ala)-C(3)-[3-(1-morpholinyl)-Ala]-N-(2Nal)-Lys(DOTA)-D-C(3)-W-P-CONH2]
< 1 nM	CCC(C)(C)[C@H](NC(=O)[C@@H](NC(=O)[C@H](Cc1c[nH]c2ccccc12)NC(C)=O)[C@@H](C)O)C(=O)N[C@H]1CSSC[C@@H](C(=O)N[C@@H](Cc2c[nH]c3ccccc23)C(=O)N2CCC[C@H]2C(N)=O)NC(=O)[C@H](CC(=O)O)NC(=O)[C@H](CCCCNC(=O)CN2CCN(CC(=O)O)CCN(CC(=O)O)CCN(CC(=O)O)CC2)NC(=O)[C@H](Cc2ccc3ccccc3c2)NC(=O)[C@H](CC(N)=O)NC(=O)C(CN2CCOCC2)NC1=O (single isomer, unassigned) [compound 311, Ac-W-T-(α-tert-amylGly)-C(3)-[3-(1-morpholinyl)-Ala]-N-(2Nal)-Lys(DOTA)-D-C(3)-W-P-CONH2]
< 1 nM	CC[C@@H](C)[C@H](NC(=O)[C@@H](NC(=O)[C@H](Cc1c[nH]c2ccccc12)NC(C)=O)[C@@H](C)O)C(=O)N[C@H]1CSSC[C@@H](C(=O)N[C@@H](Cc2c[nH]c3ccccc23)C(=O)N2CCC[C@H]2C(N)=O)NC(=O)[C@H](CC(=O)O)NC(=O)[C@H](CCCCNC(=O)CN2CCN(CC(=O)O)CCN(CC(=O)O)CCN(CC(=O)O)CC2)NC(=O)[C@H](Cc2ccc3ccccc3c2)NC(=O)[C@H](CC(N)=O)NC(=O)C(CN2CCOCC2)NC1=O (single isomer, unassigned) [compound 312, Ac-W-T-(Allo-Ile)-C(3)-[3-(1-morpholinyl)-Ala]-N-(2Nal)-Lys(DOTA)-D-C(3)-W-P-CONH2]
1 to 10 nM	CC[C@H](C)[C@H](NC(=O)[C@@H](NC(=O)[C@H](Cc1c[nH]c2ccccc12)NC(=O)[C@H](CCSC)NC(C)=O)[C@@H](C)O)C(=O)N[C@H]1CSSC[C@@H](C(=O)N[C@@H](Cc2c[nH]c3ccccc23)C(=O)N2CCC[C@H]2C(N)=O)NC(=O)[C@H](CC(=O)O)NC(=O)[C@H](Cc2cnc[nH]2)NC(=O)[C@H](Cc2c[nH]c3ccccc23)NC(=O)[C@H](CC(N)=O)NC(=O)[C@H](CC(N)=O)NC1=O [compound 1] (Ac-MWTICNNWHDCWP-NH2; disulfide 5-11)
1 to 10 nM	CC[C@H](C)[C@H](NC(=O)[C@@H](NC(=O)[C@H](Cc1c[nH]c2ccccc12)NC(=O)[C@@H](C)NC(C)=O)[C@@H](C)O)C(=O)N[C@H]1CSSC[C@@H](C(=O)N[C@@H](Cc2c[nH]c3ccccc23)C(=O)N2CCC[C@H]2C(N)=O)NC(=O)[C@H](CC(=O)O)NC(=O)[C@H](Cc2cnc[nH]2)NC(=O)[C@H](Cc2c[nH]c3ccccc23)NC(=O)[C@H](CC(N)=O)NC(=O)[C@H](CC(N)=O)NC1=O [compound 2, Ac-(D-Ala)-W-T-I-C(3)-N-N-W-H-D-C(3)-W-P-CONH2] (Ac-[dA]WTICNNWHDCWP-NH2; disulfide 5-11)
10 to 100 nM	CC[C@H](C)[C@H](NC(=O)[C@@H](NC(=O)[C@H](Cc1c[nH]c2ccccc12)NC(=O)[C@H](CCSC)NC(C)=O)[C@@H](C)O)C(=O)N[C@H]1CSSC[C@@H](C(=O)N[C@@H](Cc2c[nH]c3ccccc23)C(=O)N2CCC[C@H]2C(N)=O)NC(=O)[C@H](CC(=O)O)NC(=O)[C@H](Cc2cnc[nH]2)NC(=O)[C@H](Cc2c[nH]c3ccccc23)NC(=O)[C@H](CC(N)=O)NC(=O)[C@@H](C)NC1=O [compound 7, Ac-M-W-T-I-C(3)-(D-Ala)-N-W-H-D-C(3)-W-P-CONH2] (Ac-MWTIC[dA]NWHDCWP-NH2; disulfide 5-11)
100 to 300 nM	CC[C@H](C)[C@H](NC(=O)[C@@H](NC(=O)[C@H](Cc1c[nH]c2ccccc12)NC(=O)[C@H](CCSC)NC(C)=O)[C@@H](C)O)C(=O)N[C@H]1CSSC[C@@H](C(=O)N[C@H](C)C(=O)N2CCC[C@H]2C(N)=O)NC(=O)[C@H](CC(=O)O)NC(=O)[C@H](Cc2cnc[nH]2)NC(=O)[C@H](Cc2c[nH]c3ccccc23)NC(=O)[C@H](CC(N)=O)NC(=O)[C@H](CC(N)=O)NC1=O [compound 9, Ac-M-W-T-I-C(3)-N-N-W-H-D-C(3)-(D-Ala)-P-CONH2] (Ac-MWTICNNWHDC[dA]P-NH2; disulfide 5-11)
100 to 300 nM	CC[C@H](C)[C@H](NC(=O)[C@@H](NC(=O)[C@H](Cc1c[nH]c2ccccc12)NC(=O)[C@H](CCSC)NC(C)=O)[C@@H](C)O)C(=O)N[C@H]1CSSC[C@@H](C(=O)N[C@@H](Cc2c[nH]c3ccccc23)C(=O)N[C@H](C)C(N)=O)NC(=O)[C@H](CC(=O)O)NC(=O)[C@H](Cc2cnc[nH]2)NC(=O)[C@H](Cc2c[nH]c3ccccc23)NC(=O)[C@H](CC(N)=O)NC(=O)[C@H](CC(N)=O)NC1=O [compound 10, Ac-M-W-T-I-C(3)-N-N-W-H-D-C(3)-W-(D-Ala)-CONH2] (Ac-MWTICNNWHDCW[dA]-NH2; disulfide 5-11)
1 to 10 nM	CC[C@H](C)[C@H](NC(=O)[C@@H](NC(=O)[C@H](Cc1c[nH]c2ccccc12)NC(=O)[C@H](C)NC(C)=O)[C@@H](C)O)C(=O)N[C@H]1CSSC[C@@H](C(=O)N[C@@H](Cc2c[nH]c3ccccc23)C(=O)N2CCC[C@H]2C(N)=O)NC(=O)[C@H](CC(=O)O)NC(=O)[C@H](Cc2cnc[nH]2)NC(=O)[C@H](Cc2c[nH]c3ccccc23)NC(=O)[C@H](CC(N)=O)NC(=O)[C@H](CC(N)=O)NC1=O [compound 11, Ac-(L-Ala)-W-T-I-C(3)-N-N-W-H-D-C(3)-W-P-CONH2] (Ac-AWTICNNWHDCWP-NH2; disulfide 5-11)
10 to 100 nM	CC[C@H](C)[C@H](NC(=O)[C@H](C)NC(=O)[C@H](Cc1c[nH]c2ccccc12)NC(=O)[C@H](CCSC)NC(C)=O)C(=O)N[C@H]1CSSC[C@@H](C(=O)N[C@@H](Cc2c[nH]c3ccccc23)C(=O)N2CCC[C@H]2C(N)=O)NC(=O)[C@H](CC(=O)O)NC(=O)[C@H](Cc2cnc[nH]2)NC(=O)[C@H](Cc2c[nH]c3ccccc23)NC(=O)[C@H](CC(N)=O)NC(=O)[C@H](CC(N)=O)NC1=O [compound 13, Ac-M-W-(L-Ala)-I-C(3)-N-N-W-H-D-C(3)-W-P-CONH2] (Ac-MWAICNNWHDCWP-NH2; disulfide 5-11)
